Key:
SORBI (Common sorgum) = assay: Leaf treatment test, common sorgum; assay type: in vivo, Andropogon sorghum; conditions: 14 days after treatment
Description: (§1) Seeds of rice, wheat, barley, corn, cotton, barnyard grass, common sorgum, large crabgrass and fall panicum were seeded at a pot with a surface area of 600 cm^2. […] 14 days after the treatment, the degree of damage to the plants was rated in % damage in comparison to the development of untreated control.

PANDI (Fall panicum) = assay: Leaf treatment test, fall panicum; assay type: in vivo, Panicum dichotomiflorum Michx; conditions: 14 days after treatment
Description: as §1

TRZAW (Wheat) = assay: Leaf treatment test, wheat; assay type: in vivo, Triticum aestivum L.; conditions: 14 days after treatment
Description: as §1

ORYSA (Rice) = assay: Leaf treatment test, rice; assay type: in vivo, Oryza sativa L. cv. Dongjin; conditions: 14 days after treatment
Description: as §1

ZEAMX (Corn) = assay: Leaf treatment test, corn; assay type: in vivo, Zea mays L.; conditions: 14 days after treatment
Description: as §1

GOSHI (Cotton) = assay: Leaf treatment test, cotton; assay type: in vivo, Gossypium; conditions: 14 days after treatment
Description: as §1

DIGSA (Large crabgrass) = assay: Leaf treatment test, large crabgrass; assay type: in vivo, Digitaria Sanguinalis (L.) SCOP; conditions: 14 days after treatment
Description: as §1

GLXMA (Soy bean) = assay: Leaf treatment test, soy bean; assay type: in vivo, Glycine max (L.) MERR; conditions: 14 days after treatment
ECHCG (Barnyard grass) = assay: Leaf treatment test, barnyard grass; assay type: in vivo, Echinochloa crus-galli Beauv. var. caudata Kitagawa; conditions: leaf treatment at three leaves, 14 days after treatment
Description: as §1

SMILES | degree of damage to the plants (% damage) (SORBI (Common sorgum); treated amount 0.025 kg/ha) [%] | degree of damage to the plants (% damage) (SORBI (Common sorgum); treated amount 0.1 kg/ha) [%] | degree of damage to the plants (% damage) (SORBI (Common sorgum); treated amount 0.4 kg/ha) [%] | degree of damage to the plants (% damage) (PANDI (Fall panicum); treated amount 0.025 kg/ha) [%] | degree of damage to the plants (% damage) (PANDI (Fall panicum); treated amount 0.1 kg/ha) [%] | degree of damage to the plants (% damage) (PANDI (Fall panicum); treated amount 0.4 kg/ha) [%] | degree of damage to the plants (% damage) (TRZAW (Wheat); treated amount 0.025 kg/ha) [%] | degree of damage to the plants (% damage) (TRZAW (Wheat); treated amount 0.1 kg/ha) [%] | degree of damage to the plants (% damage) (TRZAW (Wheat); treated amount 0.4 kg/ha) [%] | degree of damage to the plants (% damage) (ORYSA (Rice); treated amount 0.025 kg/ha) [%] | degree of damage to the plants (% damage) (ORYSA (Rice); treated amount 0.1 kg/ha) [%] | degree of damage to the plants (% damage) (ORYSA (Rice); treated amount 0.4 kg/ha) [%] | degree of damage to the plants (% damage) (ZEAMX (Corn); treated amount 0.025 kg/ha) [%] | degree of damage to the plants (% damage) (ZEAMX (Corn); treated amount 0.1 kg/ha) [%] | degree of damage to the plants (% damage) (ZEAMX (Corn); treated amount 0.4 kg/ha) [%] | degree of damage to the plants (% damage) (GOSHI (Cotton); treated amount 0.025 kg/ha) [%] | degree of damage to the plants (% damage) (GOSHI (Cotton); treated amount 0.1 kg/ha) [%] | degree of damage to the plants (% damage) (GOSHI (Cotton); treated amount 0.4 kg/ha) [%] | degree of damage to the plants (% damage) (DIGSA (Large crabgrass); treated amount 0.025 kg/ha) [%] | degree of damage to the plants (% damage) (DIGSA (Large crabgrass); treated amount 0.1 kg/ha) [%] | also measured
Cc1ccc(F)c(N(C)C(=O)C(C)Oc2ccc(Oc3nc4ccc(Cl)cc4o3)cc2)c1 (stereo not drawn) [Compound No. 7] | 10 | 95 | 100 | 100 | 100 | 100 | 0 | 0 | 0 | 0 | 0 | 0 | 0 | 0 | 0 | 0 | 0 | 0 | 100 | 100 | degree of damage to the plants (% damage) (DIGSA (Large crabgrass); treated amount 0.4 kg/ha): 100%; degree of damage to the plants (% damage) (GLXMA (Soy bean); treated amount 0.025 kg/ha): 0%; degree of damage to the plants (% damage) (GLXMA (Soy bean); treated amount 0.1 kg/ha): 0%; degree of damage to the plants (% damage) (GLXMA (Soy bean); treated amount 0.4 kg/ha): 10%; degree of damage to the plants (% damage) (ECHCG (Barnyard grass); treated amount 0.025 kg/ha): 20%; degree of damage to the plants (% damage) (ECHCG (Barnyard grass); treated amount 0.1 kg/ha): 40%; degree of damage to the plants (% damage) (ECHCG (Barnyard grass); treated amount 0.4 kg/ha): 40%
CC(Oc1ccc(Oc2nc3ccc(Cl)cc3o2)cc1)C(=O)N(C)c1ccc(Cl)cc1F (stereo not drawn) [Compound No. 8] | 0 | 70 | 100 | 0 | 0 | 100 | 0 | 0 | 0 | 0 | 0 | 0 | 0 | 0 | 0 | 0 | 0 | 0 | 30 | 95 | degree of damage to the plants (% damage) (DIGSA (Large crabgrass); treated amount 0.4 kg/ha): 100%; degree of damage to the plants (% damage) (GLXMA (Soy bean); treated amount 0.025 kg/ha): 0%; degree of damage to the plants (% damage) (GLXMA (Soy bean); treated amount 0.1 kg/ha): 0%; degree of damage to the plants (% damage) (GLXMA (Soy bean); treated amount 0.4 kg/ha): 0%; degree of damage to the plants (% damage) (ECHCG (Barnyard grass); treated amount 0.025 kg/ha): 0%; degree of damage to the plants (% damage) (ECHCG (Barnyard grass); treated amount 0.1 kg/ha): 0%; degree of damage to the plants (% damage) (ECHCG (Barnyard grass); treated amount 0.4 kg/ha): 70%

Reference: patent US6486098B1, “Herbicidal phenoxypropionic acid N-alkyl-N-2-fluorophenyl amide compounds” (Dongbu Hannong Chemical Co. Ltd., priority 1999, dated 2002)
